The record followed here is patent US20210346357A1 (priority 2020, published 2021).

Data set [1] in a line: Human plasma protein binding. It counts as in vitro ADME.
Data set [2] concerns IL-2 stimulated pSTAT5 in Tall-1 T cells (JAK1/3). The data set is described as follows: Inhibition of IL-2 stimulated pSTAT5 in Tall-1 T cells. The conditions noted are these: Homo sapiens, IL-2 300 ng/mL, AlphaLisa pSTAT5, read-out: Tall-1 pIC50 (converted). It counts as cell-based. The protocol:
Assay 2: Inhibition of IL-2 Stimulated pSTAT5 in Tall-1 T Cells
The potency of test compounds for inhibition of interleukin-2 (IL-2) stimulated STATS phosphorylation was measured in the Tall-1 human T cell line (DSMZ) using AlphaLisa. Because IL-2 signals through JAK1/3, this assay provides a measure of JAK1/3 cellular potency.
Phosphorylated STATS was measured via the AlphaLISA SureFire Ultra pSTAT5 (Tyr694/699) kit (PerkinElmer).
Human T cells from the Tall-1 cell line were cultured in a 37° C., 5% CO2 humidified incubator in RPMI (Life Technologies) supplemented with 15% Heat Inactivated Fetal Bovine Serum (FBS, Life Technologies), 2mM Glutamax (Life Technologies), 25 mM HEPES (Life Technologies) and 1X Pen/Strep (Life Technologies). […] Phosphorylated STATS was measured via the pSTAT5 AlphaLisa kit (PerkinElmer). […] Luminescence was measured with excitation at 689 nm and emission at […] using an EnVision plate reader (PerkinElmer) under green filtered <100 lux light.
To determine the inhibitory potency of test compounds in response to IL-2, the average emission intensity of beads bound to pSTAT5 was measured in a human T cell line. IC50 values were determined from analysis of the inhibition curves of signal intensity versus compound concentration. Data are expressed as pIC50 (negative decadic logarithm IC50) values (mean±standard deviation).
In general terms: Bead proximity is the source of the signal in Alpha formats.

Data set [3] deals with IL-13 induced pSTAT6 in lung tissue. The experiment in a line: Murine model of IL-13 induced pSTAT6 induction in lung tissue. It counts as in vivo. The conditions noted are these: mouse lung, oral aspiration 1 mg/mL 50 μL, IL-13 challenge at 4 h; scale 0% to 100% inhibitory effect. An excerpt: Assay 3: Murine (Mouse) Model of IL-13 induced pSTAT6 Induction in Lung Tissue
IL-13 is an important cytokine underlying the pathophysiology of asthma (Kudlacz et al. Eur. J. Pharmacol, 2008, 582,154-161). IL-13 binds to cell surface receptors activating members of the Janus family of kinases (JAK) which then phosphorylate STAT6 and subsequently activates further transcription pathways. In the described model, a dose of IL-13 was delivered locally into the lungs of mice to induce the phosphorylation of STAT6 (pSTAT6) which is then measured as the endpoint.
Adult Balb/c mice from Harlan were used in the assay. […] Animals were placed in lateral recumbency post dose and monitored for full recovery from anesthesia before being returned to their home cage. Four hours later, animals were once again briefly anesthetized and challenged with either vehicle or IL-13 (0.03 μg total dose delivered, 50 μL total volume) via oral aspiration before being monitored for recovery from anesthesia and returned to their home cage. […] Plasma and lung levels of test compound were determined by LC-MS analysis against analytical standards constructed into a standard curve in the test matrix. A lung to plasma ratio was determined as the ratio of the lung concentration in ng/g to the plasma concentration in ng/mL at 5 hours. […]

What is called fraction unbound is free concentration divided by total concentration. Turning to `CCc1cc(O)ccc1-c1ccc2c(-c3nc4c([nH]3)CN(C(C)C)[C@H](C(=O)N3CC(N(C)C)C3)C4)n[nH]c2c1` [Compound 1, (S)-(3-(dimethylamino)azetidin-1-yl)(2-(6-(2-ethyl-4-hydroxyphenyl)-1H-indazol-3-yl)-5-isopropyl-4,5,6,7-tetrahydro-3H-imidazo[4,5-c]pyridin-6-yl)methanone], in data set [1], the fraction unbound turned out to be 0.019 and the “human plasma protein binding” value is 98.1%. Besides, in data set [2], the IC50 was 2.51 nM. In addition, the “pSTAT6 inhibition at 5 hours” value in data set [3] amounted to 75.
